Measurements reported in patent publication US10125126B2, “N-cycloalkyl-N-[(heterocyclylphenyl)methylene]-(thio)carboxamide derivatives” (BAYER CROPSCIENCE AG, priority 2012, dated 2018).

Tests used:
[1] = log P by HPLC on a reversed-phase column (C 18), EEC Directive 79/831 Annex V.A8; assay type: physicochemical; details: HPLC on reversed-phase column (C 18), 40° C., 0.1% aqueous formic acid and acetonitrile, linear gradient 10% to 90% acetonitrile
Method: In table 1, the log P values were determined in accordance with EEC Directive 79/831 Annex V.A8 by HPLC (High Performance Liquid Chromatography) on a reversed-phase column (C 18), using the method described below: Temperature: 40° C.; Mobile phases: 0.1% aqueous formic acid and acetonitrile; linear gradient from 10% acetonitrile to 90% acetonitrile. Calibration was carried out using unbranched alkan-2-ones (comprising 3 to 16 carbon atoms) with known log P values (determination of the log P values by the retention times using linear interpolation between two successive alkanones). lambda-max-values were determined using UV-spectra from 200 nm to 400 nm and the peak values of the chromatographic signals.

Puccinia recondita = assay: In vivo preventive test on Puccinia recondita (brown rust on wheat); details: wheat plants, 12 days after contamination
Method: In Vivo Preventive Test on Puccinia recondita (Brown Rust on Wheat) […] Wheat plants (“Scipion” variety), sown in starter cups on a 50/50 peat soil pozzolana substrate and grown at 22° C., are treated at the 1 leaf stage (10 cm height) by spraying with the active ingredient prepared as described above. Plants, used as controls, are treated with the mixture of acetone/tween/DMSO/water not containing the active material. After 24 hours, the plants are contaminated by spraying the leaves with an aqueous suspension of Puccinia recondita spores (100 000 spores per mL). The spores are collected from an infected plant and are suspended in water containing 2.5 mL/L of Tween 80 at 10%. […] Grading (% of efficacy) is carried out 12 days after the contamination, in comparison with the control plants.

Uromyces appendiculatus = assay: In vivo preventive test on Uromyces appendiculatus (bean rust); details: bean plants, 11 days after contamination
Method: In Vivo Preventive Test on Uromyces appendiculatus (Bean Rust) […] Bean plants (“Saxa” variety), sown in starter cups on a 50/50 peat soil pozzolana substrate and grown at 24° C., are treated at the 2 leaf stage (9 cm height) by spraying with the active ingredient prepared as described above. Plants, used as controls, are treated with the mixture of acetone/tween/DMSO/water not containing the active material. After 24 hours, the plants are contaminated by spraying the leaves with an aqueous suspension of Uromyces appendiculatus spores (150 000 spores per mL). The spores are collected from infected plants and are suspended in water containing 2.5 mL/L of Tween 80 at 10%. […] Grading (% of efficacy) is carried out 11 days after the contamination, in comparison with the control plants.

Septoria tritici = assay: In vivo preventive test on Septoria tritici (wheat); details: wheat plants, 24 days after contamination
Method: In Vivo Preventive Test on Septoria tritici (Wheat) […] Wheat plants (“Scipion” variety), sown in starter cups on a 50/50 peat soil pozzolana substrate and grown at 22° C., are treated at the 1 leaf stage (10 cm height) by spraying with the active ingredient prepared as described above. Plants, used as controls, are treated with the mixture of acetone/tween/DMSO/water not containing the active material. After 24 hours, the plants are contaminated by spraying the leaves with an aqueous suspension of cryopreserved Septoria tritici spores (500 000 spores per mL). The contaminated wheat plants are incubated for 72 hours at 18° C. and at 100% relative humidity, and then for 21 days at 90% relative humidity. Grading (% of efficacy) is carried out 24 days after the contamination, in comparison with the control plants.

Sphaerotheca fuliginea = assay: In vivo preventive test on Sphaerotheca fuliginea (powdery mildew on cucurbits); details: gherkin plants, 12 days after contamination
Method: In Vivo Preventive Test on Sphaerotheca fuliginea (Powdery Mildew on Cucurbits) […] Gherkin plants (“Vert petit de Paris” variety), sown in starter cups on a 50/50 peat soil-pozzolana substrate and grown at 24° C., are treated at the Z11 cotyledon stage by spraying with the active ingredient prepared as described above. Plants, used as controls, are treated with the mixture of acetone/tween/DMSO/water not containing the active material. After 24 hours, the plants are contaminated by spraying the cotyledons with an aqueous suspension of Sphaerotheca fuliginea spores (100 000 spores per mL). The spores are collected from infected plants. […] Grading (% of efficacy) is carried out 12 days after the contamination, in comparison with the control plants.

Botrytis cinerea = assay: In vivo preventive test on Botrytis cinerea (grey mould); details: gherkin plants, 4 to 5 days after contamination
Method: In Vivo Preventive Test on Botrytis cinerea (Grey Mould) […] Gherkin plants (“Vert petit de Paris” variety), sown in starter cups on a 50/50 peat soil pozzolana substrate and grown at 24° C., are treated at the Z11 cotyledon stage by spraying with the active ingredient prepared as described above. Plants, used as controls, are treated with the mixture of acetone/tween/DMSO/water not containing the active material. After 24 hours, the plants are contaminated by spraying the cotyledons with an aqueous suspension of cryopreserved Botrytis cinerea spores (50 000 spores per mL). The spores are suspended in a nutrient solution composed of 10 g/L of PDB, 50 g/L of D-Fructose, 2 g/L of NH4NO3 and 1 g/L of KH2PO4. The contaminated gherkin plants are incubated at 17° C. and at 90% relative humidity. Grading (% of efficacy) is carried out 4 to 5 days after the contamination, in comparison with the control plants.

Compound | logP [1] | Efficacy (Puccinia recondita; 100 ppm of active ingredient) | Efficacy (Uromyces appendiculatus; 100 ppm of active ingredient) | Efficacy (Puccinia recondita; 500 ppm of active ingredient) | Efficacy (Septoria tritici; 500 ppm of active ingredient) | Efficacy (Sphaerotheca fuliginea; 500 ppm of active ingredient) | Efficacy (Uromyces appendiculatus; 500 ppm of active ingredient) | Efficacy (Botrytis cinerea; 500 ppm of active ingredient) | Efficacy (Botrytis cinerea; 100 ppm of active ingredient) | Efficacy (Septoria tritici; 100 ppm of active ingredient) | Efficacy (Sphaerotheca fuliginea; 100 ppm of active ingredient)
Cn1nc(C(F)F)c(C(=O)N(Cc2cc(F)ccc2C2(C)CO2)C2CC2)c1Cl (centres unmarked) [I.8] | 3.00 | 94% | 95% |  |  |  |  |  |  |  | 
Cn1cc(-c2ccc(F)cc2CN(C(=O)c2c(C(F)F)nn(C)c2F)C2CC2)cn1 [I.56] | 2.50 |  |  | 78% | 100% | 98% | 85% |  |  |  | 
CC1CC1N(Cc1ccccc1-c1ccsc1)C(=O)c1cn(C)nc1C(F)F (centres unmarked) [I.87] | 3.48 |  |  | 75% |  |  | 84% |  |  |  | 
Cn1nc(C(F)F)c(C(=O)N(Cc2ccccc2-c2cccs2)C2CC2)c1Cl [I.78] | 3.78 |  |  |  | 83% |  | 85% | 78% |  |  | 
Cn1nc(C(F)F)c(C(=O)N(Cc2cc(-c3ccco3)ccc2Cl)C2CC2)c1Cl [I.35] | 4.01 |  |  |  |  |  |  |  | 94% |  | 
Cn1cc(-c2ccc(Cl)cc2CN(C(=O)c2c(C(F)F)nn(C)c2F)C2CC2)cn1 [I.55] | 2.80 |  |  | 95% | 95% | 100% | 99% |  |  |  | 
Cc1ccc(-c2ccoc2)c(CN(C(=O)c2c(C(F)F)nn(C)c2Cl)C2CC2)c1 [I.37] | 3.71 | 81% | 83% |  |  |  |  |  |  |  | 
Cn1nc(C(F)F)c(C(=O)N(Cc2ccccc2-c2ccco2)C2CC2)c1F [I.32] | 3.31 | 88% | 74% |  |  |  |  |  | 94% |  | 
Cn1cc(C(=O)N(Cc2ccccc2-c2ccco2)C2CC2)c(C(F)F)n1 [I.31] | 2.96 |  |  |  |  |  |  |  | 81% |  | 
CC(c1ccccc1-c1ccsc1)N(C(=O)c1c(C(F)F)nn(C)c1F)C1CC1 (centres unmarked) [I.82] | 3.78 | 81% |  |  |  |  |  |  | 97% | 97% | 98%
Cn1cc(C(=O)N(Cc2cc(-c3cccs3)ccc2Cl)C2CC2)c(C(F)F)n1 [I.84] | 3.68 |  |  |  |  |  |  |  | 100% | 71% | 
Cn1nc(C(F)F)c(C(=O)N(Cc2ccccc2-c2cccs2)C2CC2)c1F [I.69] | 3.64 |  |  | 94% | 97% | 100% | 100% |  |  |  | 
Cn1ccc(-c2ccccc2CN(C(=O)c2c(C(F)F)nn(C)c2F)C2CC2)c1 [I.49] | 3.25 |  |  |  | 96% | 78% | 100% | 99% |  |  | 
Cn1nc(C(F)F)c(C(=O)N(Cc2ccccc2C2COC2)C2CC2)c1F [I.1] | 1.51 |  |  | 75% |  | 93% | 83% |  |  |  | 
CC1=NOC(C)(c2ccc(C)cc2CN(C(=O)c2c(C(F)F)nn(C)c2F)C2CC2)C1 (centres unmarked) [I.111] | 2.98 | 88% | 100% |  |  |  |  |  |  |  | 100%
Cn1cc(C(=O)N(Cc2ccccc2-c2ccsc2)C2CC2)c(C(F)F)n1 [I.70] | 3.17 |  |  | 78% | 86% | 85% | 96% |  |  |  | 
Cn1ccc(-c2ccc(Cl)cc2CN(C(=O)c2c(C(F)F)nn(C)c2F)C2CC2)c1 [I.48] | 3.71 |  |  | 75% | 86% |  | 96% |  |  |  | 
Cn1cc(C(=O)N(Cc2cc(Cl)ccc2-c2cccs2)C2CC2)c(C(F)F)n1 [I.71] | 3.69 |  |  |  | 90% | 98% | 81% |  |  |  | 
Cc1ccc(-c2cscc2C)c(CN(C(=O)c2c(C(F)F)nn(C)c2F)C2CC2)c1 [I.108] | 4.25 |  |  |  |  |  |  |  | 100% | 86% | 75%
Cc1ccc(-c2cnn(C)c2)c(CN(C(=O)c2cn(C)nc2C(F)F)C2CC2)c1 [I.59] | 2.37 |  |  |  |  |  |  |  | 81% |  | 
Cn1nc(C(F)F)c(C(=O)N(Cc2ccccc2-c2ccsc2)C2CC2)c1Cl [I.76] | 3.71 |  |  | 93% | 75% |  | 96% |  |  |  | 
Cn1cc(C(=O)N(Cc2cc(F)ccc2C2(C)CO2)C2CC2)c(C(F)F)n1 (centres unmarked) [I.6] | 2.53 | 81% | 73% |  |  |  |  |  |  | 92% | 

Continued, in another order:

logP [1] | Compound | Efficacy (Puccinia recondita; 100 ppm of active ingredient) | Efficacy (Uromyces appendiculatus; 100 ppm of active ingredient) | Efficacy (Puccinia recondita; 500 ppm of active ingredient) | Efficacy (Septoria tritici; 500 ppm of active ingredient) | Efficacy (Sphaerotheca fuliginea; 500 ppm of active ingredient) | Efficacy (Uromyces appendiculatus; 500 ppm of active ingredient) | Efficacy (Botrytis cinerea; 500 ppm of active ingredient) | Efficacy (Botrytis cinerea; 100 ppm of active ingredient) | Efficacy (Septoria tritici; 100 ppm of active ingredient) | Efficacy (Sphaerotheca fuliginea; 100 ppm of active ingredient)
4.85 | Cn1cc(C(=O)N(Cc2cc(Cl)ccc2-c2ccc(Cl)s2)C2CC2)c(C(F)F)c1 [I.146] |  |  |  |  |  |  | 100% |  |  | 
4.26 | Cc1ccc(-c2ccsc2Cl)c(CN(C(=O)c2c(C(F)F)nn(C)c2F)C2CC2)c1 [I.150] | 81% |  |  |  |  |  |  | 90% | 80% | 100%
3.50 | Cn1nc(C(F)F)c(C(=O)N(Cc2ccccc2Oc2nc(Cl)cc(Cl)n2)C2CC2)c1F [I.168] |  |  | 81% | 80% | 83% | 99% |  |  |  | 
4.41 | Cn1cc(C(=O)N(Cc2cc(-c3ccc(Cl)s3)ccc2Cl)C2CC2)c(C(F)F)n1 [I.144] |  |  | 75% | 100% |  | 94% | 98% |  |  | 
4.51 | Cn1nc(C(F)F)c(C(=O)N(Cc2ccccc2-c2ccc(Cl)s2)C2CC2)c1Cl [I.141] |  |  | 86% | 83% |  |  | 90% |  |  | 
5.06 | Cn1nc(C(F)F)c(C(=O)N(Cc2cc(-c3ccc(Cl)s3)ccc2Cl)C2CC2)c1Cl [I.145] |  |  | 88% | 94% |  | 100% |  | 100% |  | 
4.64 | Cc1ccc(-c2csc3ccccc23)c(CN(C(=O)c2c(C(F)F)nn(C)c2F)C2CC2)c1 [I.160] |  | 77% |  |  |  |  |  |  | 71% | 98%
4.74 | Cn1nc(C(F)F)c(C(=O)N(Cc2cc(Cl)ccc2-c2csc3ccccc23)C2CC2)c1F [I.155] |  |  | 75% | 86% |  | 99% |  |  |  | 
4.27 | Cn1nc(C(F)F)c(C(=O)N(Cc2ccccc2-c2csc3ccccc23)C2CC2)c1F [I.156] |  |  | 81% | 96% | 95% |  | 97% |  |  | 
3.83 | COc1ccsc1-c1ccc(C)cc1CN(C(=O)c1c(C(F)F)nn(C)c1F)C1CC1 [I.125] | 81% |  |  |  |  |  |  | 78% | 96% | 95%
